Here are results for one compound from paper PMC9917830, “New Piperazine Derivatives of 6-Acetyl-7-hydroxy-4-methylcoumarin as 5-HT1A Receptor Agents” (International Journal of Molecular Sciences, 2023).

Where two headings read alike, the source gives them in different places.

For data set [1], the target named is T1, 5-HT1A receptor (Rattus norvegicus, UniProt P19327).
T1 construct: Brains were rapidly removed and placed on ice; from tissue; host or cells: Sprague–Dawley rat hippocampus membranes
T1 sequence (P19327 1-422): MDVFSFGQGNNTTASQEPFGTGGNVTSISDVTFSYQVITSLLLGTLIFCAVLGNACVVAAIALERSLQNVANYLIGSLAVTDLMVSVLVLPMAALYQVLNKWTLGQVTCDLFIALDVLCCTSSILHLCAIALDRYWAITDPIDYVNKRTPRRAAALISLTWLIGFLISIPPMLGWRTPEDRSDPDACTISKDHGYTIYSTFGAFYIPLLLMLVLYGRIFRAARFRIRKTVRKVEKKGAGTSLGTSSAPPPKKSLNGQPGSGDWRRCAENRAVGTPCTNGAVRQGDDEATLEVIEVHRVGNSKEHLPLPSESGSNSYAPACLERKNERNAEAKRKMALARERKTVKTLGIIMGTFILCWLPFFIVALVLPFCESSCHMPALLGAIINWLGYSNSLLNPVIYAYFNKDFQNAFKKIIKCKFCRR
In words: 5-HT1A receptor activation in the [35S]GTP-γ-S assay (agonist and antagonist mode). The format is biochemical. The conditions noted are these: read-out: 5-HT1A Receptor Inhibition IC50 (nM, 95% CI). How it is done: Sprague–Dawley rats were sacrificed by isoflurane overdose. Brains were rapidly removed and placed on ice. Hippocampi (for 5-HT1A assays) and frontal cortices (for 5-HT2A assays) were dissected on a Petri dish. The tissue from 10 rats was homogenized in 30 vol. homogenization buffer (50 mM Tris-HCl, […], 1 mM EDTA, 1 mM dithiothreitol) with a hand-held Teflon-glass homogenizer. The homogenate was centrifuged at 48,000× g at 4 °C for 15 min. […] The centrifugation and suspension steps were repeated twice. The final pellet was homogenized in 5 vol. 50 mM Tris-HCl, pH = 7.4 buffer and stored at −80 °C for not more than 6 months.
Non-specific binding was determined with 100 µM of unlabeled GTPγS. The compounds were tested in both the agonist and antagonist mode. […] The final DMSO concentration in the assay was 5%. The reaction mixture was incubated for 90 min at 30 °C on an orbital shaker set at 250 rpm. The reaction mixture was then deposited under vacuum with the FilterMate Harvester® (Perkin Elmer, Waltham, MA, USA) onto Unifilter® GF/C Plates (Perkin Elmer, Waltham, MA, USA) presoaked with wash buffer (50 mM Tris-HCl, pH = 7.4). The wells were then rapidly washed with 2 mL of wash buffer. The filter plates were dried overnight at room temperature. Once completely dry, 35 µL of MicroScint PS (Perkin Elmer, Waltham, MA, USA) scintillation fluid was added to each well. Radioactivity was counted in a MicroBeta^2 LumiJet scintillation counter (Perkin Elmer, Waltham, MA, USA). […] The curves were fitted with the three-parameter non-linear regression model.

Data set [2] addresses T1, 5-HT1A receptor. In words: Competitive 5-HT1A binding assay with [3H]8-OH-DPAT, rat hippocampal membranes. Particulars: 1 nM [3H]8-OH-DPAT, 95% CI in brackets, read-out: 5-HT1A Affinity Ki (nM, 95% CI). Here is the method:
(§1) Sprague–Dawley rats were sacrificed by isoflurane overdose. Brains were rapidly removed and placed on ice. Hippocampi (for 5-HT1A assays) and frontal cortices (for 5-HT2A assays) were dissected on a Petri dish. The tissue from 10 rats was homogenized in 30 vol. homogenization buffer (50 mM Tris-HCl, […], 1 mM EDTA, 1 mM dithiothreitol) with a hand-held Teflon-glass homogenizer. The homogenate was centrifuged at 48,000× g at 4 °C for 15 min. The pellet was suspended and homogenized in homogenization buffer and incubated for 10 min at 36 °C. The centrifugation and suspension steps were repeated twice. The final pellet was homogenized in 5 vol. 50 mM Tris-HCl, pH = 7.4 buffer and stored at −80 °C for not more than 6 months.
(§2) Non-specific binding was determined with 10 μM serotonin in both assays. The final DMSO concentration in the assay was 5%. After incubation, the reaction mixture was deposited with the FilterMate-96 Harvester (Perkin Elmer, Waltham, MA, USA) onto Unifilter® GF/C plates (Perkin Elmer, Waltham, MA, USA) presoaked in 0.4% PEI for 1h. Each well was washed with 2 mL of 50 mM Tris-HCl (pH 7.4) buffer to separate bound ligands from free ones. Plates were left to dry overnight. Then, 35 µL of Microscint-20 scintillation fluid (Perkin Elmer, Waltham, MA, USA) was added to each filter well and left to equilibrate for 2 h. Filter-bound radioactivity was counted in a MicroBeta^2 LumiJet scintillation counter (Perkin Elmer, Waltham, MA, USA). Binding curves were fitted with one-site non-linear regression. Binding affinity (pKi ± SEM and Ki ± 95% confidence intervals) for each compound was calculated from […] values with the Cheng-Prusoff equation from two separate experiments.

The target of data set [3] is T2, 5-HT2A receptor (Rattus norvegicus, UniProt P14842).
T2 construct: Brains were rapidly removed and placed on ice; from tissue; host or cells: Sprague–Dawley rat frontal cortex membranes
In words: Competitive 5-HT2A binding assay with [3H]ketanserin, rat frontal cortex membranes. The conditions noted are these: 1 nM [3H]ketanserin. How it is done:
as §1, §2

T2 sequence (P14842 whole entry): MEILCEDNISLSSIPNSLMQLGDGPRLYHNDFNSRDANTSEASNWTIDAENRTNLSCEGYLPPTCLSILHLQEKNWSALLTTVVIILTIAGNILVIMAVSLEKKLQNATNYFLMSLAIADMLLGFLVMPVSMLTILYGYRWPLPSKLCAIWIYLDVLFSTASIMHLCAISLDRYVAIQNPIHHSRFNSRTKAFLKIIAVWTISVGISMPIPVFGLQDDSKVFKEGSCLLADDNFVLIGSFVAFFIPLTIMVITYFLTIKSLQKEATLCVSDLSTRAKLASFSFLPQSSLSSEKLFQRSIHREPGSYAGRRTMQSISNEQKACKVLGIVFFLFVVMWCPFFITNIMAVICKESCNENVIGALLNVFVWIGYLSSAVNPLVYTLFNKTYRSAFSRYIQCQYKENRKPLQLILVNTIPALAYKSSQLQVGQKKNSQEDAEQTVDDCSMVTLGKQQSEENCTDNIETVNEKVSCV

Consider `CC(=O)c1cc2c(C)cc(=O)oc2cc1OCCCCN1CCN(c2cc(C)ccc2C)CC1` [Compound 11, 6-Acetyl-7-{4-[4-(2,5-dimethylphenyl)piperazin-1-yl]butoxy}-4-methylchromen-2-one], for which the melting point (usually the temperature, or range, at which the solid turns liquid) lay in the range of 130 to 131 °C. Moreover, the IC50 (in general, the concentration at which inhibition is half-maximal) in data set [1] was found to be 21900 nM. In addition, the Ki in data set [2] turned out to be 174 nM. In data set [3] (95% CI in brackets, read-out: 5-HT2A Affinity Ki (nM, 95% CI)), the Ki came out at 3710 nM. The Ki in data set [3] (± SEM, read-out: 5-HT2A Affinity pKi (converted)) was 3980 nM.
